# Results as given in article PMC9032385, “A2A Adenosine Receptor Antagonists: Are Triazolotriazine and Purine Scaffolds Interchangeable?” (Molecules, 2022).
# pKi: −log10 of the molar value.
# Key:
# [1] = target: T1, A2BAR (Homo sapiens, UniProt P29275); experiment: Functional study at A2BAR (GloSensor cAMP assay; inhibition of NECA-stimulated adenylyl cyclase activity); format: cell-based; conditions: Ki calculated from IC50 of inhibition of NECA-stimulated adenylyl cyclase activity, CHO cells
# T1 construct: expressed in transfected cells
# T1 sequence (P29275 1-332): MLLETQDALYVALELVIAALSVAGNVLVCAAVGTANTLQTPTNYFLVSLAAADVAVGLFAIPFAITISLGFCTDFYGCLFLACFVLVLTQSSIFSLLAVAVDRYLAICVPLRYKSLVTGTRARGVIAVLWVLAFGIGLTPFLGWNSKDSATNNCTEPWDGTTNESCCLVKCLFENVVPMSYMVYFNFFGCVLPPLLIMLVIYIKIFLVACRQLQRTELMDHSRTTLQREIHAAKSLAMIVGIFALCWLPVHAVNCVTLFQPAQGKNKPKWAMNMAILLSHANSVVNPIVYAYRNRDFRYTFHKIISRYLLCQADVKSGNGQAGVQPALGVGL
# Protocol: The affinities of the newly synthesized compounds 7–13 and 17–21 were determined in binding studies at human recombinant A1, A2A, and A3 ARs, stably transfected in Chinese hamster ovary (CHO) cells, using [^3H]CCPA (2-chloro-N^6-cyclopentylAdo), [^3H]NECA (5′-N-ethylcarboxamidoAdo), and [^3H]HEMADO (2-hexynyl-N^6-methylAdo) as respective radioligands. Most of the compounds were also evaluated at A2BARs in a functional study using the GloSensor cAMP assay. The results are reported in Table 1 as Ki values in nM (± standard errors). In the case of A2BARs, Ki-values were calculated from IC50-values determined by the inhibition of NECA-stimulated adenylyl cyclase activity.
# [2] = system: BV-2 murine microglial cells; experiment: RT-PCR expression of inflammatory mediators in LPS-activated BV-2 cells; format: cell-based
# Protocol: BV-2 cells were treated with 13 or ANR 94 (10 nM) and activated with 100 ng/mL LPS for 24 h. Total RNA was isolated, and proinflammatory cytokine and enzyme expressions were measured using RT-PCR (Figure 5).
# Cell Cultures and Treatments: BV-2 murine microglial cells (a gift from Prof. Elisabetta Blasi of the University of Modena and Reggio Emilia, Modena, Italy) were maintained at 37 °C and 5% CO2 in a humidified incubator and grown in DMEM supplemented with 10% (v/v) low-endotoxin fetal bovine serum (Euroclone—Milan, Italy), 2 mM L-glutamine, 50 U/mL penicillin, and 50 μg/mL streptomycin (Sigma-Aldrich–Merck, Milan, Italy). Cells were seeded at 50,000 cells/mL in 96-well tissue culture plates for the viability assay, in 6-well tissue culture plates for the Griess assay and RT-PCR assay. BV-2 cells were treated for 24 h with ANR 94 or 13 at different concentrations and then exposed to LPS (100 ng/mL; Sigma-Aldrich–Merck) for a further 24 h.
# Real-Time Polymerase Chain Reaction (PCR): At the end of the experiments, total RNA was extracted by BV-2 cells using RNeasy Mini Kit (QIAGEN GmbH, Hilden, Germany). RNA concentraion and quality were measured on a NanoVue Spectrophotometer (GE Healthcare, Milano, Italy). iScript cDNA Synthesis Kit (Bio-Rad, Hercules, CA, USA) was used to synthesize cDNA starting from the extracted RNA, following the supplier’s instructions. PCR was performed by adding 2.5 μL (12.5 ng) of cDNA, 5 μL SsoAdvanced Universal SYBR Green Supermix (Bio-Rad), and 0.5 μL (500 nM) of each primer (Table 2) to a PCR tube. cDNA amplification was started at 95 °C for 30 s to activate the polymerase, followed by 40 cycles of 5 s at 95 °C and 30 s at 60 °C. Normalized expression levels were calculated relative to the control cells according to the 2^−ΔΔCT method.
# [3] = 10 nM for 24 h, then 100 ng/mL LPS 24 h
smiles,measurement,setting,value
"CCn1c(-c2ccco2)nc2c(N)nc(NCCc3ccc(O)cc3)nc21 [compound 13, 4-(2-((6-Amino-9-ethyl-8-(furan-2-yl)-9H-purin-2-yl)amino)ethyl)phenol]",pKi,[1],5.84
same,IL-10 mRNA expression,[2]; 10 nM before 100 ng/mL LPS 24 h,maintained IL-10 expression to a level comparable to the control cells
same,COX-2 mRNA expression vs LPS,[2]; [3],significantly reduced the expression
same,IL-1β mRNA expression vs LPS,[2]; [3],significantly reduced the expression
same,IL-6 mRNA expression vs LPS,[2]; [3],significantly reduced the expression
same,iNOS mRNA expression vs LPS,[2]; [3],significantly reduced the expression
same,NLRP3 mRNA expression vs LPS,"[2]; 10 nM pre-treatment, 100 ng/mL LPS 24 h",significantly reduced
